# Experimental data published in patent US20210052701A1, “Methods of Treating Vascular Leakage Using CXCL12 Peptides” (The Medical College of Wisconsin, Inc., priority 2018, published 2021).
# “Also recorded” adds a separate entry of the source. Read-outs that look alike come from different tables or passages of the source.
# B1: CXCL12 K27A/R41A/R47A: CXCL12 mutant with significantly reduced heparan sulfate proteoglycan binding properties (protein)
# chain: KPVSLSYRCPCRFFESHVARANVKHLAILNTPNCALQIVAALKNNNAQVCIDPKLKWIQEYLEKALNK
# modifications: ends and bridges not checked
# Columns and labels:
# hPPAEC [1] = assay: Effects of CXCR4 agonists / CXCL12 variants on thrombin-induced impairment of hPPAEC monolayer permeability; format: cell-based, human
# Description: FIGS. 3A-3D show effects of CXCL12 and ubiquitin on thrombin-induced impairment of hPPAEC monolayer permeability. hPPAEC were grown to a confluent monolayer on collagen-coated permeable membranes. (A) hPPAEC were pre-treated with vehicle, 100 nM of CXCL12 or ubiquitin for 10 minutes, as indicated, and then exposed to thrombin (50 nM), followed by the addition of FITC-dextran. Vehicle: no thrombin. Endothelial permeability was assessed by measuring the amount of FITC-dextran that permeated through the cell monolayer. No cells: 100% permeability (open circles). RFU: Relative fluorescence units. N=3 in quadruplicate. *: p<0.05 vs. vehicle/thrombin. (B-D) hPPAEC were exposed to 35 nM of thrombin or vehicle. After 10 min, thrombin-exposed cells were treated with vehicle, CXCL12 (50 nM) and/or AMD3100 (10 μM) (B), with vehicle, ubiquitin (50 nM) and/or AMD3100 (10 μM) (C) or with various concentrations of ubiquitin (D) followed by the addition of FITC-dextran. The experimental conditions are indicated. Endothelial permeability was assessed by measuring the amount of FITC-dextran that permeated through the cell monolayer. RFU: Relative fluorescence units. N=3 in quadruplicate. *: p<0.05 vs. thrombin/vehicle (2-way ANOVA/Bonferroni's multiple comparison post hoc test).
# (§1) FIGS. 7A-7D show dose-dependent effects of CXCL12α/β, CXCL12 (3-68) and CXCL12 mutants K27A/R41A/R47A, R47E and S-S4V on thrombin-induced impairment of hPPAEC monolayer permeability. hPPAEC cells were grown to a confluent monolayer on collagen-coated permeable membranes. hPPAEC were then exposed to 35 nM of thrombin. After 10 min, thrombin-exposed cells were treated with vehicle or 50 nM (A), 5 nM (B), 0.5 nM (C) or 0.05 nM (D) of the various proteins, as indicated. In (D) 5 nM CXCL12a was used as a positive control. N=3 in quadruplicate.
# as §1, with “8A-8D” for “7A-7D”, “CXCL12α, CXCL121” for “CXCL12α/β, CXCL12 (3-68)”, “CXCL122” for “CXCL12 mutants K27A/R41A/R47A, R47E and S-S4V”, “CXCL12α” for “CXCL12a”
# FIGS. 9A-9B show inhibition of thrombin-induced hyper-permeability of hPPAEC by CXCL12/CXCL12 variants. % inhibition: % inhibition of thrombin-induced hyperpermeability. Data from FIGS. 7 and 8 at t=255 min. N=3 in quadruplicate. *: p<0.05 vs. CXCL12a (2-way ANOVA/Bonferroni's multiple comparison post hoc test).
# (§2) In vitro vascular permeability assays—Permeability assays were obtained from Millipore (ECM642) and performed as per manufacturer's instructions. In brief, 96-well collagen-coated permeability assay plates were pre-hydrated for 15 min, 5×10^5 cells were seeded on each well and grown to a confluent monolayer for 48 hours. Fluorescein isothiocyanate (FITC)-dextran (20 μg/mL) was then added on top of the monolayer and the amount of FITC-dextran that permeated through the monolayer was quantified by measuring fluorescence in a Synergy 2 Multi-mode Microplate Reader (BioTek, Winooski, Vt.) at various time points over a 255 min time period.
# CXCR4 = target: T1, CXCR4 (Homo sapiens, UniProt P61073); assay: Presto-Tango β-arrestin 2 recruitment assay for CXCR4; format: cell-based
# T1 construct: host or cells: HTLA cells (HEK293 line stably expressing a tTA-dependent luciferase reporter and a β-arrestin2-TEV fusion gene)
# Description: (§3) FIGS. 6A-6F show Presto-Tango β-arrestin 2 recruitment assays for CXCR4 (A-C) and ACKR3 (D-F). RLU %: % of the luminescence signal for 1 μM CXCL12α. N=9 for CXCL12a and n=3 for all other proteins.
# (§4) Presto-Tango β-arrestin 2 recruitment assay—The PRESTO-Tango (parallel receptorome expression and screening via transcriptional out-put, with transcriptional activation following arrestin translocation) assay was performed as recently described. The Tango plasmids were a gift from Dr. Bryan Roth (all from Addgene). HTLA cells (2.5×10^5/well) were seeded in a 6-well plate and transfected with 1.5 μg of the Tango plasmids using Lipofectamine 3000 (ThermoScientific). The following day, transfected HTLA cells (1×10^5 cells/well) were plated onto Poly-L-Lysine pre-coated 96-well micro-plates and allowed to attach to the plate surface for at least 4 hours prior to treatment. Proteins used for treatment were prepared in twice the final concentration in culture media, added at a 1:1 vol/vol ratio and incubated overnight at 37° C., 5% CO2 in a humidified environment. The following morning, media was removed from cell culture plates and replaced with a 100 μL 1:5 mixture of Bright-Glo (Promega) and 1×HBSS, 20 mM HEPES solution. Plates were then incubated at room temperature before measuring luminescence on a Biotek Synergy II plate reader.
# ACKR3 = target: T2, ACKR3 (Homo sapiens, UniProt P25106); assay: Presto-Tango β-arrestin 2 recruitment assay for ACKR3; format: cell-based
# T2 construct: host or cells: HTLA cells (HEK293 line stably expressing a tTA-dependent luciferase reporter and a β-arrestin2-TEV fusion gene)
# Description: as §3, §4
# hPPAEC [2] = assay: Thrombin dose-response in hPPAEC monolayer permeability assay; format: cell-based, human; details: for EC50: read-out: EC50 for thrombin-induced impairment of hPPAEC barrier function; for maximal impairment of endothelial barrier function: 100% = permeability in the absence of hPPAEC
# Description: FIGS. 2A-2B show impairment of hPPAEC monolayer permeability by thrombin. (A) hPPAEC were grown to a confluent monolayer on collagen-coated permeable membranes and then exposed to different concentration of thrombin for 10 min, followed by the addition of FITC-dextran. Endothelial permeability was assessed by measuring the amount of FITC-dextran that permeated through the cell monolayer. No cells: 100% permeability. RFU: Relative fluorescence units. N=3 in quadruplicate. (B) Dose-response curves for thrombin-induced permeability, data from A. 100% permeability=permeability in the absence of hPPAEC. Open squares: Permeability at t=55 min. Light grey squares: Permeability at t=135 min. Dark grey squares: Permeability at t=255 min. Dose-response curves were generated using nonlinear regression analyses.
# as §2
# Data analysis—Data are expressed as mean±SEM from n independent experiments that were performed on different days. Data were analyzed with unpaired Student's t test, one- or two-way analyses of variance with Bonferroni's multiple comparison post hoc test, as appropriate. Dose-response curves were generated using nonlinear regression analyses. All analyses were performed with the GraphPad-Prism 7 software. A two-tailed P<0.05 was considered significant.
# HULEC-5a = assay: Thrombin dose-response in HULEC-5a monolayer permeability assay; format: cell-based, human; details: read-out: EC50 for thrombin-induced impairment of HULEC-5a barrier function
# Description: FIGS. 4A-4D show effects of CXCL12 and ubiquitin on thrombin-induced impairment of HULEC-5a monolayer permeability. (A) HULEC-5a were grown to a confluent monolayer on collagen-coated permeable membranes and then exposed to different concentration of thrombin for 10 min, followed by the addition of FITC-dextran. Endothelial permeability was assessed by measuring the amount of FITC-dextran that permeated through the cell monolayer. No cells: 100% permeability. RFU: Relative fluorescence units. N=3 in quadruplicate. (B) Dose-response curves for thrombin-induced permeability, data from A. 100% permeability=permeability in the absence of HULEC-5a. Open squares: Permeability at t=55 min. Light grey squares: Permeability at t=135 min. Dark grey squares: Permeability at t=255 min. (C/D) HULEC-5a were grown to a confluent monolayer on collagen-coated permeable membranes and then exposed to 50 nM of thrombin or vehicle. After 10 min, thrombin-exposed cells were treated with vehicle, CXCL12 (50 nM) (C) or ubiquitin (50 nM) (D), followed by the addition of FITC-dextran. The experimental conditions are indicated. Endothelial permeability was assessed by measuring the amount of FITC-dextran that permeated through the cell monolayer. RFU: Relative fluorescence units. N=3 in quadruplicate. *: p<0.05 vs. thrombin/vehicle (2-way ANOVA/Bonferroni's multiple comparison post hoc test).
# as §2
# [3] = system: animal model of acute respiratory distress syndrome (ARDS); assay: Animal model of ARDS: lung ischemia reperfusion injury plus hemorrhage (P:F ratio, lung injury score); format: in vivo, Sprague-Dawley rats; details: 0.14 μmol/kg i.v. within 10 min after reperfusion; until t=300 min
# Description: Animals underwent 70 min of […] lung ischemia for 70 min plus hemorrhage to a MAP of 40 mmHg for the last 30 min of ischemia, followed by fluid resuscitation to a MAP of 60 mmHg until t=300 min. Arrow: drug injection. Dashed lines indicate the P:F ratio (mmHg) threshold values for the diagnosis of mild, moderate and severe ARDS. Vehicle: n=5. CXCL12: n=3. CXCL12: n=4. CXCL12-LM: n=3, CXCL12-LD: n=4. CXCL12 K27A/R41A/R47A: n=3. LI+HEM: lung ischemia reperfusion injury plus hemorrhage. Data are mean±SEM. *: p<0.05 vs. vehicle (2-way ANOVA/Dunnett's multiple comparisons test).
# FIGS. 12A-12C show lung histology after treatment with CXCL12 and engineered CXCR4 agonists A. Lung specimens were placed in formalin fixative solution and were then embedded in paraffin wax, sliced into 5 μm sections and stained with H&E. Representative images from H&E stained lung sections from animals after vehicle (left) and CXCL12 ([…], right treatment. B/C. Lung injury scores (B. uninjured (left) lung; C. injured (right) lung). Data are median±interquartile ranges. Data were analyzed with the Kruskal Wallis test with Dunn's multiple comparisons test. The level of statistical significance (p) vs. ctrl. (vehicle treatment) indicated.
# We tested therapeutic efficacy of wild-type CXCL12, CXXL12-locked dimer (LD), CXCL12-locked monomer (LM) and the triple mutant CXCL12 K27A/R41A/R47A in an animal model of acute respiratory distress syndrome (ARDS) (FIG. 11). All drugs were injected in a dose of 0.14 μmol/kg. Male Sprague-Dawley rats were anesthetized, orotracheally intubated, instrumented with arterial/venous catheters, and mechanically ventilated (PEEP 2 mmHg, FiO2 1.0). After a right lateral thoracotomy, a suture was tied around the hilum of the right lung. Animals underwent 70 min of right lung ischemia plus hemorrhage to a mean arterial blood pressure (MAP) of 40 mmHg for the last 30 min of lung ischemia. At t=70 min, the suture was removed, animals were ventilated with FiO2 1.0, PEEP 5 mmHg and resuscitated with crystalloids to a MAP of 60 mmHg until t=300 min. Vehicle and drugs were injected i.v. within 10 min after reperfusion.
# We further evaluated histomorphology of the lungs from animals treated with vehicle, wild-type CXCL12, CXCL12-LD and CXCXL12-LM utilizing a standardized lung injury score. Lung slides stained with hematoxylin and eosin were examined under a light microscope by 4 investigators blinded to the identity of the specimens. The lung injury score was assessed as previously described/. In brief each investigator rendered a score of 0 (no damage) to 4+(maximal damage) based on an injury grading scale composed of six criteria. The slides were assessed for the extent of alveolar congestion, hemorrhage and edema, as well as alveolar and vessel wall PMN infiltration and alveolar wall thickness. […] Lung injury scores of the uninjured and injured lungs from animals treated with vehicle, wild-type CXCL12, CXCL12-LD and CXCXL12-LM are shown in FIGS. […], respectively.
# T2 sequence (P25106 whole entry, the tested form may be a part): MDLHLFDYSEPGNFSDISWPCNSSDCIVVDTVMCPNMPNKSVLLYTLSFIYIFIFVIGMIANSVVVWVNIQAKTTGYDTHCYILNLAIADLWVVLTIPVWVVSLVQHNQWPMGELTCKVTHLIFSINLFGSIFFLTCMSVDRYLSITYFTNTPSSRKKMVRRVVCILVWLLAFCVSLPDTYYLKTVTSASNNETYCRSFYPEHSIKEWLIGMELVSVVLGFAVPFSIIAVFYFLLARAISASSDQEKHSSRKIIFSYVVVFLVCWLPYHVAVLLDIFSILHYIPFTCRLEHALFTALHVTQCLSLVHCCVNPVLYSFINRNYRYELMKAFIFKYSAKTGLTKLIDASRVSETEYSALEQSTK
# T1 sequence (P61073 whole entry, the tested form may be a part): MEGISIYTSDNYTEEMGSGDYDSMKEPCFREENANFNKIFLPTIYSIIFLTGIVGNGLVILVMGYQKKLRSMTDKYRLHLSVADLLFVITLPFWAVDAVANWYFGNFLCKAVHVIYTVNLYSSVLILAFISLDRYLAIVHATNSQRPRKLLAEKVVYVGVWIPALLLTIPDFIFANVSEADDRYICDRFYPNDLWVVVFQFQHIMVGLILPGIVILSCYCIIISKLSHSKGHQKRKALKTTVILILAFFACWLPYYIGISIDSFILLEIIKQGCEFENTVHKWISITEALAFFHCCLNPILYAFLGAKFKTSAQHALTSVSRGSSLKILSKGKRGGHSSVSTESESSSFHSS
molecule,measurement,setting,value
"CXCL12 (3-68): truncated CXCL12 (3-68), N-terminal truncated",effect on thrombin-mediated impairment of hPPAEC barrier function,"hPPAEC [1]; thrombin 35 nM, after 10 min 0.05-50 nM protein",did not attenuate thrombin-induced impairment of hPPAEC barrier function
same,efficacy to recruit β-arrestin 2 to CXCR4,"CXCR4; top plateau, % of signal for 1 μM CXCL12α",lacked relevant CXCR4 activity
same,efficacy for β-arrestin 2 recruitment to ACKR3,ACKR3,significantly reduced
CXCL12 R47E: CXCL12 mutant which activates CXCR4 with reduced potency,"potency (EC50) to recruit β-arrestin 2 to CXCR4, compared with CXCL12α",CXCR4,significantly lower than the potency of CXCL12α
same,ACKR3 activity (in words),ACKR3,retains ACKR3 activity comparable to wild type proteins
thrombin,EC50,hPPAEC [2]; after 55 min,30 ± 2 nM
same,EC50,hPPAEC [2]; after 135 min,33 ± 2 nM
same,EC50,hPPAEC [2]; after 255 min,36 ± 2 nM
same,maximal impairment of endothelial barrier function,hPPAEC [2]; at 55 min,49±3%
same,maximal impairment of endothelial barrier function,hPPAEC [2]; at 135 min,59±4%
same,maximal impairment of endothelial barrier function,hPPAEC [2]; at 255 min,72±4%
same,time to reach plateau for the permeability-inducing effects,hPPAEC [2]; thrombin 20 nM,55 min
same,time to reach plateau for the permeability-inducing effects,hPPAEC [2]; thrombin 40 nM,135 min
same,time to reach plateau for the permeability-inducing effects,hPPAEC [2]; thrombin 50 nM,255 min
same,time to reach plateau for the permeability-inducing effects,hPPAEC [2]; thrombin 100 nM,255 min
same,EC50,HULEC-5a; after 55 min,64 ± 7 nM
same,EC50,HULEC-5a; after 135 min,64 ± 6 nM
same,EC50,HULEC-5a; after 255 min,57 ± 5 nM
B1,potency to attenuate thrombin-induced permeability of hPPAEC (in words),hPPAEC [1],same potency as wild type proteins and CXCL121
same,"potency (EC50) to recruit β-arrestin 2 to CXCR4, compared with CXCL12α",CXCR4,significantly lower than the potency of CXCL12α; also recorded: lowest potency to activate CXCR4
same,EC50 (potency) for β-arrestin 2 recruitment to ACKR3,ACKR3,retained high potency to activate ACKR3
same,development of ARDS (P:F ratio),[3],indistinguishable from vehicle treated animals
